In patent US7157453B2, “Urea substituted imidazoquinolines” (3M Innovation Properties Company, priority 1999, dated 2007) one finds minimal effective concentration data, which are given here for 39 compounds.

SMILES strings stand for the structures. Counter-ions that a name gives are not always drawn. Where only a bound is given, the exact number is not on record here.

The subject of test [1] is tumor necrosis factor (α). Kind of test: Cytokine Induction in Human Cells: tumor necrosis factor (α) by ELISA. The conditions noted are these: PBMC; human PBMCs, incubated 18 to 24 hours, lowest concentration found to induce tumor necrosis factor. It counts as cell-based. An excerpt: (§1) An in vitro human blood cell system was used to assess cytokine induction by compounds of the invention. Activity is based on the measurement of interferon and tumor necrosis factor (α) (IFN and TNF, respectively) secreted into culture media as described by Testerman et. al. In “Cytokine Induction by the Immunomodulators Imiquimod and S-27609”, Journal of Leukocyte Biology, 58, 365–372 (September, 1995).
(§2) Whole blood is collected by venipuncture into EDTA vacutainer tubes from healthy human donors. Peripheral blood mononuclear cells (PBMCs) are separated from whole blood by density gradient centrifugation using Histopaque®-1077 (Sigma Chemicals, St. Louis, Mo.). The PBMCs are suspended at 3–4×10^6 cells/mL in RPMI 1640 medium containing 10% fetal bovine serum, 2 mM L-glutamine and 1% penicillin/streptomycin solution (RPMI complete). The PBMC suspension is added to 48 well flat bottom sterile tissue culture plates (Costar, Cambridge, Mass. or Becton Dickinson Labware, Lincoln Park, N.J.) containing an equal volume of RPMI complete media containing test compound.
(§3) The compounds are solubilized in dimethyl sulfoxide (DMSO). The DMSO concentration should not exceed a final concentration of 1% for addition to the culture wells.
(§4) The solution of test compound is added at 60 μM to the first well containing RPMI complete and serial (three fold or ten fold) dilutions are made. The PBMC suspension is then added to the wells in an equal volume, bringing the test compound concentrations to the desired range. The final concentration of PBMC suspension is 1.5–2×10^6 cells/mL. The plates are covered with sterile plastic lids, mixed gently and then incubated for 18 to 24 hours at 37° C. in a 5% carbon dioxide atmosphere.
(§5) Following incubation the plates are centrifuged for 5–10 minutes at 1000 rpm (˜200×g) at 4° C. The cell culture supernatant is removed with a sterile polypropylene pipet and transferred to sterile polypropylene tubes. Samples are maintained at −30 to −70° C. until analysis. The samples are analyzed for interferon (α) and tumor necrosis factor (α) by ELISA
Tumor necrosis factor (α) (TNF) concentration is determined using ELISA kits available from Genzyme, Cambridge, Mass.; R&D Systems, Minneapolis, Minn.; or Pharmingen, San Diego, Calif.
(§6) The table below lists the lowest concentration found to induce interferon and the lowest concentration found to induce tumor necrosis factor for each compound.

A further test concerns interferon (α). In words: Cytokine Induction in Human Cells: interferon (α) by ELISA. The following applies: PBMC; human PBMCs, incubated 18 to 24 hours, lowest concentration found to induce interferon. It counts as cell-based.
Source text: as §1, §2, §3, §4, §5
Interferon (α) concentration is determined by ELISA using a Human Multi-Species kit from PBL Biomedical Laboratories, New Brunswick, N.J.
as §6

What is called minimal effective concentration is the smallest amount tested that counted as effective. Read a low minimal effective concentration as an effect from little substance. Take `CCCCCc1nc2c(N)nc3c(c2n1CCCCNC(=O)N1CCOCC1)CCCC3` [Example 172, N-[4-(4-amino-2-pentyl-6,7,8,9-tetrahydro-1H-imidazo[4,5-c]quinolin-1-yl)butyl]morpholine-4-carboxamide hydrochloride]: the minimal effective concentration in test [1] came to 0.37 µM; in the test on interferon (α) it was 0.01 µM.

For the compound `Cc1cc(C)c(NC(=O)NCCCCn2cnc3c(N)nc4ccccc4c32)cc1C` [Example 38], the minimal effective concentration (in test [1]; with interferon (α)) was greater than 30 µM throughout.

For `CCCCNC(=O)NCCCCn1cnc2c(N)nc3ccccc3c21` [Example 52], the figures for the minimal effective concentration (in test [1]; with interferon (α)) were 10 µM and 1.11 µM, respectively.

For the compound `CCCCCCCCNC(=O)NCCCCn1c(CCCC)nc2c(N)nc3ccccc3c21` [Example 87], the minimal effective concentration was greater than 10 µM in test [1] and 1 µM in the test with interferon (α).

As to `COCCc1nc2c(N)nc3ccccc3c2n1CCCCNC(=O)NC1CCCCC1` [Example 105], the minimal effective concentration was 1 µM in test [1] and 0.001 µM with interferon (α).

Consider `CCCCc1nc2c(N)nc3ccccc3c2n1CCNC(=O)NCc1ccccc1` [Example 55], for which the minimal effective concentration (in test [1]; with interferon (α)) was 1 µM each time.

For the compound `Nc1nc2ccccc2c2c1ncn2CCCCNC(=O)Nc1cc(C(F)(F)F)cc(C(F)(F)F)c1` [Example 23], the minimal effective concentration was 10 µM in test [1] and greater than 30 µM in the test with interferon (α).

For `CC(C)(C)CC(C)(C)NC(=O)NCCCCn1cnc2c(N)nc3ccccc3c21` [Example 32], the minimal effective concentration (in test [1]; in the test with interferon (α)) was 10 µM throughout.

`COCCc1nc2c(N)nc3ccccc3c2n1CCCNC(=O)Nc1ccccc1` [Example 161, N-{3-[4-amino-2-(2-methoxyethyl)-1H-imidazo[4,5-c]quinolin-1-yl]propyl}-N′-phenylurea]: the minimal effective concentration (in test [1]; in the test on interferon (α)) was 0.01 µM in each case.

Turning to `CCCCCCNC(=O)NCCCCn1cnc2c(N)nc3ccccc3c21` [Example 25], the minimal effective concentration in test [1] is greater than 30 µM; with interferon (α), 3.33 µM.

As for `COCCc1nc2c(N)nc3ccccc3c2n1CCCCNC(=O)OCc1ccccc1` [Example 142, N-{4-[4-Amino-2-(2-methoxyethyl)-1H-imidazo[4,5-c]quinolin-1-yl]butyl}carbamate Trifluoroacetate], the minimal effective concentration in test [1] worked out at 0.1 µM; in the test with interferon (α) it was 0.0001 µM.

As for `CCCCCNC(=O)NCCCCn1cnc2c(N)nc3ccccc3c21` [Example 30], the minimal effective concentration in test [1] is 30 µM; in the test on interferon (α), 3.33 µM.

With `COCCc1nc2c(N)nc3ccccc3c2n1CCCCNC(=O)Nc1ccc([N+](=O)[O-])cc1` [Example 115], the values for the minimal effective concentration (in test [1]; in the test on interferon (α)) were 1 µM and 0.0001 µM, respectively.

For `CC(C)c1cccc(C(C)C)c1NC(=O)NCCCCn1cnc2c(N)nc3ccccc3c21` [Example 24], the minimal effective concentration (in test [1]; with interferon (α)) was greater than 30 µM throughout.

In the case of `Nc1nc2ccccc2c2c1ncn2CCCCNC(=O)Nc1ccccc1-c1ccccc1` [Example 45], the minimal effective concentration is greater than 30 µM in test [1] and 3.33 µM in the test with interferon (α).

Turning to `COCCc1nc2c(N)nc3ccccc3c2n1CCCCNC(=O)N(C)c1ccccc1` [Example 120], the minimal effective concentration was determined as 0.01 µM in test [1] and 0.0001 µM in the test with interferon (α).

Turning to `CCCNC(=O)NCCCCn1cnc2c(N)nc3ccccc3c21` [Example 26], the minimal effective concentration was greater than 30 µM in test [1] and 10 µM in the test on interferon (α).

Turning to `COCCc1nc2c(N)nc3ccccc3c2n1CCCCNC(=S)Nc1ccc(N(C)C)c2ccccc12` [Example 126], the minimal effective concentration is 1 µM in test [1] and 0.0001 µM in the test with interferon (α).

With `COCCc1nc2c(N)nc3ccccc3c2n1CC(C)(C)CNC(=O)Nc1ccccc1` [Example 169, N-{3-[4-amino-2-(2-methoxyethyl)-1H-imidazo[4,5-c]quinolin-1-yl]-2,2-dimethylpropyl}-N′-phenylurea], the minimal effective concentration (in test [1]; in the test with interferon (α)) was 0.01 µM in each case.

For `CCCCc1nc2c(N)nc3ccccc3c2n1CCCNC(=O)OC(C)(C)C` [Example 147, tert-butyl 3-(4-amino-2-butiyl-1H-imidazo[4,5-c]quinolin-1-yl)propylcarbamate], the minimal effective concentration in test [1] was determined as 0.12 µM; with interferon (α) it was 0.01 µM.

Turning to `COCCc1nc2c(N)nc3ccccc3c2n1CCCCNC(=O)Nc1ccccc1Br` [Example 119], the minimal effective concentration (in test [1]; in the test on interferon (α)) was 10 µM throughout.

In the case of `CCCCc1nc2c(N)nc3ccccc3c2n1CCCNC(=O)Nc1ccccc1` [Example 146, N-[3-(4-amino-2-butyl-1H-imidazo[4,5-c]quinolin-1-yl)propyl]-N′-phenylurea], the minimal effective concentration in test [1] amounted to 0.12 µM; with interferon (α), 0.01 µM.

For the compound `CSc1cccc(NC(=O)NCCCCn2cnc3c(N)nc4ccccc4c32)c1` [Example 49], the minimal effective concentration (in test [1]; with interferon (α)) was 3.33 µM each time.

Turning to `Nc1nc2ccccc2c2c1ncn2CCCCNC(=O)Nc1cc(C(F)(F)F)ccc1Cl` [Example 31], the minimal effective concentration in test [1] is 10 µM; in the test with interferon (α), greater than 30 µM.

Take `COCCc1nc2c(N)nc3c(c2n1CCCCNC(=O)N1CCOCC1)CCCC3` [Example 135]: the minimal effective concentration in test [1] was 10 µM; in the test with interferon (α), 0.01 µM.

Consider `N#Cc1cccc(NC(=O)NCCCCn2cnc3c(N)nc4ccccc4c32)c1` [Example 28], for which the values for the minimal effective concentration (in test [1]; in the test on interferon (α)) were 3.33 µM and 1.11 µM, respectively.

For `COCCc1nc2c(N)nc3ccccc3c2n1CCCCNC(=S)Nc1cccnc1` [Example 125], the figures for the minimal effective concentration (in test [1]; in the test on interferon (α)) were 10 µM and 0.0001 µM, respectively.

Consider `CCCCc1nc2c(N)nc3ccccc3c2n1CCNC(=O)NC12CC3CC(CC(C3)C1)C2` [Example 53], for which the minimal effective concentration was 10 µM in test [1] and greater than 10 µM in the test on interferon (α).

With `CC(C)NC(=O)NCCCCn1cnc2c(N)nc3ccccc3c21` [Example 19], the minimal effective concentration came out at 30 µM in test [1] and 1.11 µM in the test with interferon (α).

Turning to `COCCc1nc2c(N)nc3ccccc3c2n1CCCCNC(=O)N[C@H](C)c1ccccc1` [Example 110], the results for the minimal effective concentration (in test [1]; in the test with interferon (α)) were 1 µM and 0.001 µM, respectively.

For the compound `CCCCOC(=O)c1ccc(NC(=O)NCCCCn2cnc3c(N)nc4ccccc4c32)cc1` [Example 50], the minimal effective concentration (in test [1]; in the test on interferon (α)) was greater than 30 µM throughout.

With `COCCc1nc2c(N)nc3ccccc3c2n1CCCCNC(=O)Nc1cccc(C(F)(F)F)c1` [Example 116], the minimal effective concentration in test [1] amounted to 1 µM; in the test on interferon (α) it was 0.0001 µM.

Take `CCCCc1nc2c(N)nc3ccccc3c2n1CCCCNC(=O)N[C@@H]1C[C@H]1c1ccccc1` [Example 88]: the minimal effective concentration in test [1] amounted to 1 µM; with interferon (α) it was 0.1 µM.

In the case of `COCCc1nc2c(N)nc3ccccc3c2n1CCCCNC(=O)N1CCOCC1` [Example 121], the minimal effective concentration came out at 10 µM in test [1] and 0.01 µM in the test with interferon (α).

`COCCc1nc2c(N)nc3ccccc3c2n1CCCCNC(=O)Nc1cccc(F)c1` [Example 107]: the minimal effective concentration worked out at 1 µM in test [1] and 0.0001 µM in the test with interferon (α).

Turning to `COCCc1nc2c(N)nc3ccccc3c2n1CCCCNC(=O)Nc1cccc(C#N)c1` [Example 108], the minimal effective concentration (in test [1]; with interferon (α)) was 0.0001 µM each time.

Take `COCCc1nc2c(N)nc3ccccc3c2n1CCCCNC(=O)NC12CC3CC(CC(C3)C1)C2` [Example 100]: the minimal effective concentration in test [1] was 10 µM; in the test with interferon (α), 0.001 µM.

Regarding `CCCCCCCNC(=O)NCCCCn1cnc2c(N)nc3ccccc3c21` [Example 22], the minimal effective concentration in test [1] is 10 µM; with interferon (α) it was greater than 30 µM.

`CCCCc1nc2c(N)nc3ccccc3c2n1CCCCNC(=O)N[C@H](C)c1ccccc1` [Example 81]: the minimal effective concentration in test [1] turned out to be 1 µM; in the test on interferon (α) it was 0.01 µM.
